As usually defined, the inhibition in vivo is how much of the control response was suppressed. As a reminder, the IC50 is the point on the concentration scale where inhibition reaches its midpoint. Lower therefore signals inhibition by little substance. As a reminder, the EC50 is the midpoint of the concentration-response curve. A high value points to weaker potency.

The structures appear in SMILES notation. Where a SMILES comes first, the peptide text is derived from it. [ ]: non-standard residue; d: D form. Cha = N[C@@H](CC1CCCCC1)C(=O)O; Aib = CC(C)(N)C(=O)O

Consider 16 molecules from ChEMBL document CHEMBL4052740, “Potent antiobesity effect of a short-length peptide YY-analogue continuously administered in mice” (Bioorg Med Chem Lett, 2017).

For one assay, the system named is Mus musculus. In words: Anorectic activity in C57BL/6J mouse assessed as inhibition of food intake at 1 mg/kg/day, sc administered by infusion as continuous dosing for 3 days relative to 1 mg/kg/day PYY (3 to 36 residues). The assay is classed as functional. The note with it: 72 h.
The target of assay [1] is T1, Neuropeptide Y receptor type 2 (Homo sapiens, UniProt P49146).
T1 sequence (P49146 whole entry): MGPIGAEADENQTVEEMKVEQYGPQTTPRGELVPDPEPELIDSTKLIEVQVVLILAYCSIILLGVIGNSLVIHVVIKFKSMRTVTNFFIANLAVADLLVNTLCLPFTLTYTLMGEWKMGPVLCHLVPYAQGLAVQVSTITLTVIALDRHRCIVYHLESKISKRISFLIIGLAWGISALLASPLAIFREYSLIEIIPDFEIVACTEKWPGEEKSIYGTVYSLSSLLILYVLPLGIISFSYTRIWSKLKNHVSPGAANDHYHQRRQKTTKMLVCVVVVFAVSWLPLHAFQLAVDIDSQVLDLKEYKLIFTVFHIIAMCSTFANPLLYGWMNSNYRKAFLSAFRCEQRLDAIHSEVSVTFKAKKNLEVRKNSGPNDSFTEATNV
In words: Displacement of [125I]peptide YY from human Y2 receptor expressed in CHO cell membranes after 60 mins by TopCount scintillation counting analysis. Background: Displacement assays read how much labelled ligand stays bound in the presence of the test substance.

Assay [2] concerns the target T1, Neuropeptide Y receptor type 2. In words: Agonist activity at human Y2 receptor expressed in CHO cell membranes after 120 mins by [35S]GTPgammaS binding assay. The assay is classed as functional.

Turning to `CC(=O)N[C@@H](CO)C(=O)N1CCC[C@@H]1C(=O)N[C@@H](CCCNC(=N)N)C(=O)N[C@@H](Cc1cnc[nH]1)C(=O)N[C@@H](CC1CCCCC1)C(=O)N[C@@H](CC1CCCCC1)C(=O)N[C@@H](CC(N)=O)C(=O)N[C@@H](CC(C)C)C(=O)NC(C)(C)C(=O)N[C@H](C(=O)N[C@@H](CCCNC(=N)N)C(=O)N[C@@H](CCC(N)=O)C(=O)N[C@@H](CCCNC(=N)N)C(=O)N[C@@H](CC1CCCCC1)C(N)=O)[C@@H](C)O` (Ac-S[dP]RH[Cha][Cha]NL[Aib]TRQR[Cha]-NH2), the inhibition in vivo at 1 mg/kg/day in the assay with Mus musculus came out at 33%. Also, in assay [1], the half-inhibitory concentration (IC50) was 1.5 nM. Further, a half-maximal response in assay [2] (EC50) required 0.61 nM.
As to `CCCC[C@H](NC(=O)[C@H](CC(N)=O)NC(=O)[C@H](CC1CCCCC1)NC(=O)[C@H](CC1CCCCC1)NC(=O)[C@H](Cc1cnc[nH]1)NC(=O)[C@H](CCCNC(=N)N)NC(=O)[C@H]1CCCN1C(=O)[C@H](CO)NC(C)=O)C(=O)NC(C)(C)C(=O)N[C@H](C(=O)N[C@@H](CCCNC(=N)N)C(=O)N[C@@H](CCC(N)=O)C(=O)N[C@@H](CCCNC(=N)N)C(=O)N[C@@H](CC1CCCCC1)C(N)=O)[C@@H](C)O`, the concentration for half-maximal inhibition (IC50) in assay [1] worked out at 1.3 nM. This molecule displayed an EC50 in assay [2] of 0.21 nM.
`CC(=O)N[C@@H](CO)C(=O)N1CCC[C@@H]1C(=O)N[C@@H](CCCNC(=N)N)C(=O)N[C@@H](Cc1cnc[nH]1)C(=O)N[C@@H](CC1CCCCC1)C(=O)N[C@@H](CC1CCCCC1)C(=O)N[C@@H](CC(N)=O)C(=O)N[C@@H](CO)C(=O)NC(C)(C)C(=O)N[C@H](C(=O)N[C@@H](CCCNC(=N)N)C(=O)N[C@@H](CCC(N)=O)C(=O)N[C@@H](CCCNC(=N)N)C(=O)N[C@@H](CC1CCCCC1)C(N)=O)[C@@H](C)O` showed an IC50 in assay [1] of 2.3 nM. In addition, the midpoint of the response in assay [2], the EC50, lay at 0.6 nM.
On to `CC(=O)N[C@@H](CO)C(=O)N1CCC[C@@H]1C(=O)N[C@@H](CCCNC(=N)N)C(=O)N[C@@H](Cc1cnc[nH]1)C(=O)N[C@@H](CC1CCCCC1)C(=O)N[C@@H](Cc1cnc[nH]1)C(=O)N[C@@H](CC(N)=O)C(=O)N[C@@H](CC(C)C)C(=O)NC(C)(C)C(=O)N[C@H](C(=O)N[C@@H](CCCNC(=N)N)C(=O)N[C@@H](CCC(N)=O)C(=O)N[C@@H](CCCNC(=N)N)C(=O)N[C@@H](CC1CCCCC1)C(N)=O)[C@@H](C)O`, for which, in assay [1], the half-inhibitory concentration (IC50) is 2.8 nM. The same molecule yielded an EC50 in assay [2] of 1 nM.
With `CC(=O)N[C@@H](CO)C(=O)N1CCC[C@@H]1C(=O)N[C@@H](CCCNC(=N)N)C(=O)N[C@@H](CCC(N)=O)C(=O)N[C@@H](CC1CCCCC1)C(=O)N[C@@H](CC1CCCCC1)C(=O)N[C@@H](CC(N)=O)C(=O)N[C@@H](CC(C)C)C(=O)NC(C)(C)C(=O)N[C@H](C(=O)N[C@@H](CCCNC(=N)N)C(=O)N[C@@H](CCC(N)=O)C(=O)N[C@@H](CCCNC(=N)N)C(=O)N[C@@H](CC1CCCCC1)C(N)=O)[C@@H](C)O`, the inhibition in vivo at 1 mg/kg/day with Mus musculus was 55%. Further, the half-inhibitory concentration (IC50) in assay [1] was found to be 1.1 nM. In addition, a half-maximal response in assay [2] (EC50) required 0.42 nM.
With `CC(=O)N[C@@H](CO)C(=O)N1CCC[C@@H]1C(=O)N[C@@H](CCCNC(=N)N)C(=O)N[C@@H](Cc1cnc[nH]1)C(=O)N[C@@H](CC1CCCCC1)C(=O)N[C@@H](CC1CCCCC1)C(=O)N[C@@H](CC(N)=O)C(=O)N[C@@H](CCCNC(=N)N)C(=O)NC(C)(C)C(=O)N[C@H](C(=O)N[C@@H](CCCNC(=N)N)C(=O)N[C@@H](CCC(N)=O)C(=O)N[C@@H](CCCNC(=N)N)C(=O)N[C@@H](CC1CCCCC1)C(N)=O)[C@@H](C)O`, the inhibition in vivo at 1 mg/kg/day with Mus musculus worked out at 59%. This molecule also yielded an IC50 in assay [1] of 0.6 nM. This molecule came in with an EC50 in assay [2] of 0.16 nM.
The molecule `CC(=O)N[C@@H](CO)C(=O)N1CCC[C@@H]1C(=O)N[C@@H](CCCNC(=N)N)C(=O)N[C@@H](Cc1cnc[nH]1)C(=O)N[C@@H](Cc1cnc[nH]1)C(=O)N[C@@H](CC1CCCCC1)C(=O)N[C@@H](CC(N)=O)C(=O)N[C@@H](CC(C)C)C(=O)NC(C)(C)C(=O)N[C@H](C(=O)N[C@@H](CCCNC(=N)N)C(=O)N[C@@H](CCC(N)=O)C(=O)N[C@@H](CCCNC(=N)N)C(=O)N[C@@H](CC1CCCCC1)C(N)=O)[C@@H](C)O` registered an IC50 in assay [1] of 11 nM. The molecule also registered an EC50 in assay [2] of 3.8 nM.
As to `CC(=O)N[C@@H](CO)C(=O)N1CCC[C@@H]1C(=O)N[C@@H](CCCNC(=N)N)C(=O)N[C@@H](Cc1cnc[nH]1)C(=O)N[C@@H](CC1CCCCC1)C(=O)NC(C)(C)C(=O)N[C@@H](CC(N)=O)C(=O)N[C@@H](CC(C)C)C(=O)NC(C)(C)C(=O)N[C@H](C(=O)N[C@@H](CCCNC(=N)N)C(=O)N[C@@H](CCC(N)=O)C(=O)N[C@@H](CCCNC(=N)N)C(=O)N[C@@H](CC1CCCCC1)C(N)=O)[C@@H](C)O`, the inhibition in vivo at 1 mg/kg/day in the assay with Mus musculus is 59%. In addition, the IC50 in assay [1] was found to be 1.4 nM. This molecule returned an EC50 in assay [2] of 0.66 nM.
With `CC(=O)N[C@@H](CO)C(=O)N1CCC[C@@H]1C(=O)N[C@@H](CCCNC(=N)N)C(=O)N[C@@H](Cc1cnc[nH]1)C(=O)N[C@@H](CC1CCCCC1)C(=O)N[C@@H](CC1CCCCC1)C(=O)N[C@@H](CC(N)=O)C(=O)N[C@@H](CCCCN)C(=O)NC(C)(C)C(=O)N[C@H](C(=O)N[C@@H](CCCNC(=N)N)C(=O)N[C@@H](CCC(N)=O)C(=O)N[C@@H](CCCNC(=N)N)C(=O)N[C@@H](CC1CCCCC1)C(N)=O)[C@@H](C)O`, the inhibition in vivo at 1 mg/kg/day in the assay with Mus musculus was 79%. This molecule yielded an IC50 in assay [1] of 0.55 nM. The molecule also showed a half-maximal effective concentration (EC50) in assay [2] of 0.2 nM.
As to `CC(=O)N[C@@H](CO)C(=O)N1CCC[C@@H]1C(=O)N[C@@H](CCCNC(=N)N)C(=O)N[C@@H](Cc1cnc[nH]1)C(=O)N[C@@H](CCC(N)=O)C(=O)N[C@@H](CC1CCCCC1)C(=O)N[C@@H](CC(N)=O)C(=O)N[C@@H](CC(C)C)C(=O)NC(C)(C)C(=O)N[C@H](C(=O)N[C@@H](CCCNC(=N)N)C(=O)N[C@@H](CCC(N)=O)C(=O)N[C@@H](CCCNC(=N)N)C(=O)N[C@@H](CC1CCCCC1)C(N)=O)[C@@H](C)O`, the IC50 in assay [1] is 8.7 nM. Moreover, in assay [2], the midpoint of the response, the EC50, lay at 4.4 nM.
As for `CC(=O)N[C@@H](CO)C(=O)N1CCC[C@@H]1C(=O)N[C@@H](CCCNC(=N)N)C(=O)N[C@@H](Cc1cnc[nH]1)C(=O)N[C@@H](CC1CCCCC1)C(=O)N[C@@H](Cc1ccncc1)C(=O)N[C@@H](CC(N)=O)C(=O)N[C@@H](CC(C)C)C(=O)NC(C)(C)C(=O)N[C@H](C(=O)N[C@@H](CCCNC(=N)N)C(=O)N[C@@H](CCC(N)=O)C(=O)N[C@@H](CCCNC(=N)N)C(=O)N[C@@H](CC1CCCCC1)C(N)=O)[C@@H](C)O`, the inhibition in vivo at 1 mg/kg/day with Mus musculus is 41%. Further, the IC50 in assay [1] turned out to be 2.5 nM. For the same molecule, the EC50 in assay [2] amounted to 0.75 nM.
The matching figures for `CC(=O)N[C@@H](CO)C(=O)N1CCC[C@@H]1C(=O)N[C@@H](CCCNC(=N)N)C(=O)N[C@@H](CO)C(=O)N[C@@H](CC1CCCCC1)C(=O)N[C@@H](CC1CCCCC1)C(=O)N[C@@H](CC(N)=O)C(=O)N[C@@H](CC(C)C)C(=O)NC(C)(C)C(=O)N[C@H](C(=O)N[C@@H](CCCNC(=N)N)C(=O)N[C@@H](CCC(N)=O)C(=O)N[C@@H](CCCNC(=N)N)C(=O)N[C@@H](CC1CCCCC1)C(N)=O)[C@@H](C)O`: 54%, 0.97 nM and 0.33 nM.
Turning to `CC(=O)N[C@@H](CO)C(=O)N1CCC[C@@H]1C(=O)N[C@@H](CCCNC(=N)N)C(=O)N[C@@H](Cc1cnc[nH]1)C(=O)N[C@@H](Cc1ccc(O)cc1)C(=O)N[C@@H](CC1CCCCC1)C(=O)N[C@@H](CC(N)=O)C(=O)N[C@@H](CC(C)C)C(=O)NC(C)(C)C(=O)N[C@H](C(=O)N[C@@H](CCCNC(=N)N)C(=O)N[C@@H](CCC(N)=O)C(=O)N[C@@H](CCCNC(=N)N)C(=O)N[C@@H](CC1CCCCC1)C(N)=O)[C@@H](C)O`, the IC50 in assay [1] is 5.3 nM. The same molecule had an EC50 in assay [2] of 2.5 nM.
`CC(=O)N[C@@H](CO)C(=O)N1CCC[C@@H]1C(=O)N[C@@H](CCCNC(=N)N)C(=O)N[C@@H](Cc1cnc[nH]1)C(=O)N[C@@H](Cc1ccncc1)C(=O)N[C@@H](CC1CCCCC1)C(=O)N[C@@H](CC(N)=O)C(=O)N[C@@H](CC(C)C)C(=O)NC(C)(C)C(=O)N[C@H](C(=O)N[C@@H](CCCNC(=N)N)C(=O)N[C@@H](CCC(N)=O)C(=O)N[C@@H](CCCNC(=N)N)C(=O)N[C@@H](CC1CCCCC1)C(N)=O)[C@@H](C)O`: the concentration for half-maximal inhibition (IC50) in assay [1] was 6 nM. The molecule further yielded an EC50 in assay [2] of 1.8 nM.
With `CC(=O)N[C@@H](CO)C(=O)N1CCC[C@@H]1C(=O)N[C@@H](CCCNC(=N)N)C(=O)N[C@@H](Cc1cnc[nH]1)C(=O)N[C@@H](CC1CCCCC1)C(=O)N[C@@H](CC1CCCCC1)C(=O)N[C@@H](CC(N)=O)C(=O)N[C@@H](Cc1ccncc1)C(=O)NC(C)(C)C(=O)N[C@H](C(=O)N[C@@H](CCCNC(=N)N)C(=O)N[C@@H](CCC(N)=O)C(=O)N[C@@H](CCCNC(=N)N)C(=O)N[C@@H](CC1CCCCC1)C(N)=O)[C@@H](C)O`, the IC50 in assay [1] worked out at 3 nM. The same molecule returned an EC50 in assay [2] of 0.48 nM.
In turn, `CC(=O)N[C@@H](CO)C(=O)N1CCC[C@@H]1C(=O)N[C@@H](CCCNC(=N)N)C(=O)N[C@@H](Cc1cnc[nH]1)C(=O)NC(C)(C)C(=O)N[C@@H](CC1CCCCC1)C(=O)N[C@@H](CC(N)=O)C(=O)N[C@@H](CC(C)C)C(=O)NC(C)(C)C(=O)N[C@H](C(=O)N[C@@H](CCCNC(=N)N)C(=O)N[C@@H](CCC(N)=O)C(=O)N[C@@H](CCCNC(=N)N)C(=O)N[C@@H](CC1CCCCC1)C(N)=O)[C@@H](C)O` showed an IC50 in assay [1] of 2.6 nM. The same molecule returned a 50% effective concentration (EC50) in assay [2] of 1.7 nM.
